According to US20260137697A1, “THIAZOLO[5,4-D]PYRIMIDINE COMPOUNDS, COMPOSITIONS COMPRISING THEM AND USES THEREOF” (University de Montreal, priority 2022, published 2026):

Target: T1, ARAF (Homo sapiens, UniProt P10398)
T1 construct: ARAF kinase reactions were rigorously the same with the exception that kinase concentration was raised to 3.75 nM (cat. No. 1768-0000-1; Reaction Biology)
T1 sequence (P10398 303-606 limits assumed): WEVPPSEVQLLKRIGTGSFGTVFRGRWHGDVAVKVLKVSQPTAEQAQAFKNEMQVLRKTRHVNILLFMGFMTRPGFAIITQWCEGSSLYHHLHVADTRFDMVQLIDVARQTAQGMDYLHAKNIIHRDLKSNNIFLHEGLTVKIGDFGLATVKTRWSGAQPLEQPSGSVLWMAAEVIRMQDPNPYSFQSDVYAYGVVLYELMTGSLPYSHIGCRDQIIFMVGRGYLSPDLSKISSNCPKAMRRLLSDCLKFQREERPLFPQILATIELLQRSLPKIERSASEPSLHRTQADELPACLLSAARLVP
Experiment: ARAF kinase activity assay (AlphaLISA p-MEK 1/2)
Format: biochemical
Details: Table A; 10 μM ATP, kinase-dead MEK1 substrate
Description: Compound preparation: solid samples of each substance in 1dram vials were suspended in DMSO (Fisher Scientific) at a stock concentration of 20 mM. Stocks were kept at −20° C. and protected from light. If solubility of the compound at 20 mM appeared to be an issue, the initial concentration of the DMSO stock was changed to 10 mM or 5 mM.
In vitro enzymatic reactions were used for evaluating compounds intrinsic activity against BRAF, CRAF and ARAF. For BRAF and CRAF, 0.375 nM of purified GST-tagged kinases (cat. No. B4062-10UG and cat. No. R1656-10UG respectively from Millipore Sigma) were incubated with 75 nM of kinase-dead MEK1 substrate (cat. No. 40075; BPS Bioscience) in the presence of 10 μM of Ultrapure ATP (cat. No. V9102; Promega; part V915A) with and without the test compound in a buffer containing 50 mM HEPES pH 7.5, 10 mM MgCl2, 1 mM EDTA, 0.01% Brij-35 and 2 mM DTT. Separate reactions were performed with the MEK1 substrate and ATP as a blank control. ARAF kinase reactions were rigorously the same with the exception that kinase concentration was raised to 3.75 nM (cat. No. 1768-0000-1; Reaction Biology).
For compound treatment, 5 μL/well of test substance solution are placed in a 384-well proxyplate (Perkin Elmer) and mixed with 2× concentrated kinase reactions. The dilution series is selected so that nine concentrations cover a range from 100 nM to 0.01 nM. […] The final concentration of DMSO in the assay is set at 0.05%.
ARAF kinase reactions were carried out for a total of 2 hours at 30° C. and then stopped by addition of EDTA at a final concentration of 40 mM. Reactions were then detected using the AlphaLISA® SureFire® Ultra™ p-MEK 1/2 (Ser218/222) (PerkinElmer) kit. Reactions were performed with 5 μL of kinase reaction according to the manufacturer's specifications in 384-well proxyplates (Perkin Elmer) followed by overnight incubation of the AlphaLISA® reactions at room temperature in a humidified chamber. After completion of the detection reactions, the signals were recorded on a Synergy Neo2 plate reader (Biotek) equipped with AlphaLISA® filters. The effect of each compound dilution on the pMEK signal generated by ARAF reactions was expressed in % inhibition and calculated as follows. An internal 100% inhibition control (average of luminescence in kinase reactions comprising kinase dead MEK1 substrate alone) was included in each plate to measure of pMEK background and was subtracted from each data point. The average of DMSO (vehicle) controls (set as 0% inhibition) was also established and used to calculate % inhibition:
IC50 values were obtained by plotting the kinase inhibition values and fitting the dose-activity curves using a log(agonist) versus response—variable slope (four parameters) function using either GraphPadPrism (V7.0) or Dotmatics Screening Ultra platform. Standards included in the ARAF kinase assay were Belvarafenib (MedChem Express cat. No. HY-109080; CAS No. 1446113-23-0), LXH254 (MedChem Express cat. No. HY-112089; CAS No. 1800398-38-2) and BGB283 (cat. No. HY-18957; CAS No. 1446090-79-4).

Compound	IC50 [nM]
O=C1CCc2c(Oc3ccc4c(c3)[C@@H]3[C@H](O4)[C@H]3c3nc4ccc(C(F)(F)F)cc4[nH]3)ccnc2N1 [BGB283]	> 10
Cc1ccc(NC(=O)c2ccnc(C(F)(F)F)c2)cc1-c1cc(OCCO)nc(N2CCOCC2)c1 [LXH254]	> 10
